Values quoted from earlier work in patent publication US20120149888A1, “SYNTHESIS OF ARA-2'-O-METHYL-NUCLEOSIDES, CORRESPONDING PHOSPHORAMIDITES AND OLIGONUCLEOTIDES INCORPORATING NOVEL MODIFICATIONS FOR BIOLOGICAL APPLICATION IN THERAPEUCTICS, DIAGNOSTICS, G- TETRAD FORMING OLIGONUCLEOTIDES AND APTAMERS” (priority 2009, published 2012).
“Also recorded” adds a separate entry of the source. Like-named read-outs stand apart in the source and are kept apart here.

Assays:
[1] = rhesus monkey, in vivo
P815/FU = settings: 5-Fluorouracil-resistant P815/FU
L1210/CA = settings: 1β-D-Arabinofuranosylcytosine-resistant L1210/CA
[2] = system: ara-C-resistant neoplasms
[3] = system: explants of intact rat colonic mucosa
Ehrlich ascites (AZU 1) = settings: 6-Azauracil-resistant Ehrlich ascites (AZU 1)
[4] = system: Ehrlich ascites resistant to 5-fluorodeoxyuridine (FUdR); settings: 5-Fluorodeoxyuridine-resistant Ehrlich ascites
[5] = system: human nasopharyngeal KB cells
[6] = system: 36 human tumor cell lines
[7] = system: 11 human tumor xenografts; settings: 11 xenografts
mouse leukemia L1210 = settings: L1210 cells
Ehrlich ascites (EAC-R2) = settings: 6-Methyl thiopurine ribonucleoside-resistant Ehrlich ascites (EAC-R2)
[8] = system: nucleoside transport (thymidine uptake); settings: for Ki: read-out: Ki value for inhibition of thymidine uptake
[9] = system: equilibrative NBMPR-sensitive nucleoside transporter (es); settings: growth-inhibitory concentrations
[10] = in vivo
ovarian cancer = settings: previously treated patients
[11] = 6-Mercaptopurine-resistant L1210/MP(III)
[12] = Thioguanine-resistant L1210 TG/R
[13] = 5-Fluorouracil-resistant P815-E176

## Nc1ncn([C@@H]2O[C@H](CO)[C@@H](O)[C@@H]2O)c(=O)n1 [AAC, Arabinosyl-5-azacytosine]
[1]
  CSF clearance exceeds the rate of CSF bulk flow: 5 fold
  greater CSF drug exposure, intrathecal or intraventricular versus systemic: 50 fold
[1]; 200 mg/kg
  area under the CSF concentration x time curve, intraventricular 10 mg versus intravenous 200 mg/kg: fifty fold
  peak CSF concentration, intraventricular 10 mg versus intravenous 200 mg/kg: one hundred
[1]; icv or intrathecal, 10 mg
  CSF clearance: 0.2 mL/min

## Nc1nc(=O)n([C@@H]2O[C@H](CO)[C@@H](O)[C@@H]2O)cc1F [Ara-FC, 1β-D-arabinofuranosyl-5-fluorocytosine]
P815/FU
  Response to chemotherapeutic drugs: Same as parent line: Ara-FC
P815/FU; listed as ara-FC
  Response to chemotherapeutic drugs: Same as parent line: retained the same sensitivity

## O=NN(CCCl)C(=O)NCCCl [BCNU, 1,3-bis(2-chloroethyl)-1-nitrosourea]
L1210/CA
  Response to chemotherapeutic drugs: Same as parent line: BCNU

## COC(COC(N)=O)C1=C(N2CC2)C(=O)C(C)=C(N2CC2)C1=O (stereo not shown) [Carbazilquinone]
L5178Y/ara-C; in vivo
  Response to chemotherapeutic drugs: Same as parent line: Carbazilquinone
[2]; in vivo
  cross-resistance of ara-C-resistant neoplasms to the drug: no cross-resistance
L1210/MP(III); mouse, in vivo
  Response to chemotherapeutic drugs: collaterally sensitive: collateral sensitivity; also recorded: Carbazilquinone

## Nc1nc(N)c2c(Cl)c(CNc3ccc(C(=O)N[C@@H](CC(=O)O)C(=O)O)cc3)ccc2n1 [Chlorasquin]
L1210/MP(III); mouse, in vivo
  Response to chemotherapeutic drugs: collaterally sensitive: Chlorasquin

## O=c1[nH]c(=O)n([C@H]2C[C@H](O)[C@@H](CO)O2)cc1F [Compound 5-FUdR]
[3]
  incorporation of tritiated TdR into DNA: not altered
  levels of tritiated deoxyuridine: reduced

## O=c1cnn([C@@H]2O[C@H](CO)[C@@H](O)[C@H]2O)c(=O)[nH]1 [Compound 6-Azauridine, 6-Azauridine]
Ehrlich ascites (AZU 1)
  Response to chemotherapeutic drugs: Cross-resistant: 6-Azauridine
Ehrlich ascites (AZU 1); listed as 6-azauridine
  Response to chemotherapeutic drugs: Cross-resistant: cross-resistant

## O=c1[nH]c(=O)n([C@H]2C[C@H](O)[C@@H](CO)O2)cc1C(F)(F)F [Compound F3TdR, 5-trifluoromethyl-2′-deoxyuridine]
[4]
  Response to chemotherapeutic drugs: Cross-resistant: cross-resistant; also recorded: F3TdR

## O=P1(N(CCCl)CCCl)NCCCO1 (stereo not shown) [Cytoxan]
L5178Y/ara-C; in vivo
  Response to chemotherapeutic drugs: Same as parent line: Cytoxan
L1210 TG/R; mouse, in vivo
  Response to chemotherapeutic drugs: Same as parent line: no change in response; also recorded: Cytoxan
P815-E176; in vivo
  Response to chemotherapeutic drugs: Same as parent line: no change in response; also recorded: Cytoxan

## CN(Cc1cnc2nc(N)[nH]c(=O)c2n1)c1c(Cl)cc(C(=O)NC(CCC(=O)O)C(=O)O)cc1Cl (stereo not shown) [DCM, 3′,5′-dichloromethopterin]
L1210/CA
  Response to chemotherapeutic drugs: Same as parent line: DCM

## C#C[C@@]1(O)[C@@H](CO)O[C@@H](n2ccc(=O)[nH]c2=O)[C@@H]1O [EUrd, 1-(3-C-ethynyl-beta-D-ribo-pentofuranosyl)uracil]
[5]
  IC50: 29 nM
[6]
  1050 values: nanomolar to micromolar range
[7]
  human tumors with potent inhibition: 8 of 11
Mouse leukemia L1210
  IC50: 130 nM

## Nc1ncnc2c([C@@H]3O[C@H](CO)[C@@H](O)[C@H]3O)[nH]nc12 [Formycin]
Ehrlich ascites (EAC-R2)
  Response to chemotherapeutic drugs: Cross-resistant: Formycin

## Nc1n[nH]c(N)n1 [Guanazole]
L1210/ara-C; in vivo
  Response to chemotherapeutic drugs: Same as parent line: Guanazole TSC
[2]; in vivo
  cross-resistance of ara-C-resistant neoplasms to the drug: no cross-resistance

## CCOC(=O)NO [Hydroxycarbamic Acid ethyl ester]
L1210/CA
  Response to chemotherapeutic drugs: Same as parent line: Hydroxycarbamic

## N[C@@H](Cc1ccc(N(CCCl)CCCl)cc1)C(=O)O [L-PAM, L-phenylalanine mustard methanol]
L1210 TG/R; mouse, in vivo
  Response to chemotherapeutic drugs: collaterally sensitive: L-PAM
P815-E176; in vivo
  Response to chemotherapeutic drugs: collaterally sensitive: L-PAM

## Cc1c(CNc2ccc(C(=O)N[C@@H](CC(=O)O)C(=O)O)cc2)ccc2ncnc(N)c12 [Methasquin]
L1210/MP(III); [11]
  Response to chemotherapeutic drugs: collaterally sensitive: Methasquin

## CN(Cc1cnc2nc(N)nc(N)c2n1)c1ccc(C(=O)N[C@@H](CCC(=O)O)C(=O)O)cc1 [Methotrexate]
L5178Y/ara-C; L5178Y/ara-C
  Response to chemotherapeutic drugs: Same as parent line: Methotrexate
L1210 TG/R; [12]
  Response to chemotherapeutic drugs: Same as parent line: Methotrexate
L1210 TG/R; Thioguanine-resistant L1210 TG/R, listed as methotrexate
  Response to chemotherapeutic drugs: Same as parent line: not altered
P815-E176; [13]
  Response to chemotherapeutic drugs: Same as parent line: Methotrexate
L1210/MP(III); [11]
  Response to chemotherapeutic drugs: collaterally sensitive: collaterally sensitive

## COCC(COc1nc(N2CCCCC2)c2nc(OCC(COC)OC)nc(N3CCCCC3)c2n1)OC (stereo not shown) [NU3059]
L1210 cells; analogue 10 microM
  growth inhibitory activity of the TS inhibitor CB3717: enhance

## COc1ccc(CNc2nc(N(CCO)CCO)nc3c(NCc4ccc(OC)cc4)nc(N(CCO)CCO)nc23)cc1 [NU3076]
[8]; AGP 5 mg ml(−1)
  inhibition of thymidine uptake in the presence of AGP: not significantly affected
[8]
  Ki: 100 nM
L1210 cells
  FU cytotoxicity: significant potentiation
  reduction of the LC90 of nolatrexed: > threefold

## NC(=S)NN=Cc1ccccn1 [TSC, pyridine-2-carboxaldehyde thiosemicarbazone]
L1210/ara-C; L1210/ara-C (Schabel et al., 1971)
  Response to chemotherapeutic drugs: Same as parent line: Guanazole TSC
[2]; several other ara-C-resistant neoplasms
  cross-resistance of ara-C-resistant neoplasms to the drug: no cross-resistance

## Cc1cn([C@H]2C[C@H](O)[C@@H](CO)O2)c(=O)[nH]c1=O [TdR, Thymidine]
[9]
  expression of es: no significant effect

## S=P(N1CC1)(N1CC1)N1CC1 [Thio-TEPA, triethylenethiophosphoramide]
L1210 TG/R; mouse, in vivo
  Response to chemotherapeutic drugs: collaterally sensitive: Thio-TEPA
P815-E176; in vivo
  Response to chemotherapeutic drugs: Cross-resistant: cross-resistance; also recorded: Thio-TEPA

## Nc1nc2nc[nH]c2c(=S)[nH]1 [Thioguanine]
P815-E176; [13]
  Response to chemotherapeutic drugs: Same as parent line: Thioguanine

## C[C@@]1(CO)[C@H](O)CC[C@@]2(C)[C@H]1CC[C@H]1C[C@@H]3C[C@@]12CC[C@]3(O)CO [aphidicolin]
[9]
  expression of es: no significant increase

## [N-]=[N+]=CC(=O)OC[C@H](N)C(=O)O [azaserine]
L1210 TG/R; [12]
  Response to chemotherapeutic drugs: Same as parent line: not altered; also recorded: azaserine
P815-E176; [13]
  Response to chemotherapeutic drugs: Same as parent line: Azaserine
L1210/MP(III); [11]
  Response to chemotherapeutic drugs: collaterally sensitive: collaterally sensitive

## OCCN(CCO)c1nc(N2CCCCC2)c2nc(N(CCO)CCO)nc(N3CCCCC3)c2n1 [dipyridamole]
[8]
  Ki: 280 nM
[3]
  incorporation of tritiated TdR into DNA: reduced
L1210 cells; absence of salvageable thymidine
  reduction of the LC90 of nolatrexed: > threefold

## CO[C@@]12[C@H](COC(N)=O)C3=C(C(=O)C(C)=C(N)C3=O)N1C[C@@H]1N[C@@H]12 [mitomycin C]
L1210/MP(III); mouse, in vivo
  Response to chemotherapeutic drugs: collaterally sensitive: collaterally sensitive

## NC(=O)c1csc([C@@H]2O[C@H](CO)[C@@H](O)[C@H]2O)n1 [tiazofurin, 2-B-D-Ribofuranosylthiazole-4-Carboxamide]
[10]
  antitumor activity: No antitumor activity was observed
  dose limiting toxicities: pericarditis and clinical symptoms suggestive of a more generalized serositis
  maximally tolerated dose: 1650 mg/m2
  patients with sustained depletion of guanine nucleotide pools: 1 of 6

## Neocarzinostatin
L1210/MP(III); mouse, in vivo
  Response to chemotherapeutic drugs: collaterally sensitive: collateral sensitivity; also recorded: Neocarzinostatin

## gemcitabine-cisplatin
Ovarian cancer
  response, doublets: 53%

B1: L-asparaginase: L-asparaginase, enzyme drug (protein, UniProt P00805 23-348, looked up)
L-asparaginase 2: LPNITILATGGTIAGGGDSATKSNYTVGKVGVENLVNAVPQLKDIANVKGEQVVNIGSQDMNDNVWLTLAKKINTDCDKTDGFVITHGTDTMEETAYFLDLTVKCDKPVVMVGAMRPSTSMSADGPFNLYNAVVTAADKASANRGVLVVMNDTVLDGRDVTKTNTTDVATFKSVNYGPLGYIHNGKIDYQRTPARKHTSDTPFDVSKLNELPKVGIVYNYANASDLPAKALVDAGYDGIVSAGVGNGNLYKSVFDTLATAAKTGTAVVRSSRVPTGATTQDAEVDDAKYGFVASGTLNPQKARVLLQLALTQTKDPQQIQQIFNQY
L5178Y/ara-C; L5178Y/ara-C
  Response to chemotherapeutic drugs: Cross-resistant: L-asparaginase
  Response to chemotherapeutic drugs: collaterally sensitive: collaterally sensitive
